Experimental data taken from US10494380B2, “Nitrogen-containing tricyclic derivatives having HIV replication inhibitory activity” (priority 2015, dated 2019).
Where two headings read alike, the source gives them in different places.

What was measured:
CYP2C9 = CYP2C9 (Homo sapiens (Human), UniProt P11712); assay: CYP inhibition assay, tolbutamide methyl-hydroxylation (Test Example 4); format: in vitro ADME; conditions: pooled human hepatic microsome, 100 μmol/L tolbutamide, 15 minutes, 37° C.
Method: Using commercially available pooled human hepatic microsome, and employing, as markers, 7-ethoxyresorufin O-deethylation (CYP1A2), tolbutamide methyl-hydroxylation (CYP2C9), mephenytoin 4′-hydroxylation (CYP2C19), dextromethorphan O-demethylation (CYP2D6), and terfenadine hydroxylation (CYP3A4) as typical substrate metabolism reactions of human main five CYP enzyme forms (CYP1A2, 2C9, 2C19, 2D6, 3A4) an inhibitory degree of each metabolite production amount by a test compound was assessed.
The reaction conditions were as follows: substrate, 0.5 μmol/L ethoxyresorufin (CYP1A2), 100 μmol/L tolbutamide (CYP2C9), 50 μmol/L S-mephenytoin (CYP2C19), 5 μmol/L dextromethorphan (CYP2D6), 1 μmol/L terfenedine (CYP3A4); reaction time, 15 minutes; reaction temperature, 37° C.; enzyme, pooled human hepatic microsome 0.2 mg protein/mL; test drug concentration, 1, 5, 10, 20 μmol/L (four points).
Each five kinds of substrates, human hepatic microsome, and a test drug in 50 mmol/L Hepes buffer as a reaction solution was added to a 96-well plate as the composition ad described above, NADPH, as a coenzyme was added to initiate metabolism reactions as markers and, after the incubation at 37° C. for 15 minutes, a methanol/acetonitrile=1/1 (V/V) solution was added to stop the reaction. After the centrifugation at 3000 rpm for 15 minutes, resorufin (CYP1A2 metabolite) in the supernatant was quantified by a fluorescent multilabel counter and tolbutamide hydroxide (CYP2C9 metabolite), mephenytoin 4′ hydroxide (CYP2C19 metabolite), dextrorphan (CYP2D6 metabolite), and terfenadine alcohol (CYP3A4 metabolite) were quantified by LC/MS/MS.

[1] = tested on: T125A mutant virus (HIV-1 NL-432 recombinant molecular clone, IN gene); assay: HIV replication inhibition assay against integrase 124/125 mutant virus (Test Example 2); format: cell-based
How it was run: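 EC50 is the compound concentration blocking half of virus-induced cell death, measured by MTT (OD 560 nm, 690 nm reference) after 4 days at 37 °C. Integrase 124/125 mutant NL-432 virus from transfected 293T cells (60 pfu) was added to 2.5×10^4 MT-4 cells with compound.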

HIV (HTLV-IIIB strain) = assay: HIV replication inhibition assay (Test Example 1; MT-4 cells, MTT); format: cell-based; conditions: HIV (HTLV-IIIB strain), MT-4 cells, MTT, four days; for EC50: read-out: EC50; for EC90: read-out: EC90
How it was run: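 MT-4 cells (2.5×10^4/well) were infected with HIV HTLV-IIIB (60 pfu) in the presence of compound and cultured 4 days at 37 °C. Cell viability was read by MTT reduction (OD 560/690 nm). EC50 and EC90 are the concentrations inhibiting virus-induced cytotoxicity by 50% and 90%.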

HIV = format: cell-based; conditions: EC50 in the presence of human serum (25%) versus without human serum, MT-4 cells
How it was run: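 HIV-infected MT-4 cells (3×10^4/well, infected 1 h at 37° C) are grown 4 days with compound that was first mixed 1 h with human serum or with medium only. Potency shift is the EC50 with serum divided by the EC50 without serum.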

[2] = tested on: sheep red blood cells (RBC); assay: Photohemolysis test (Test Example 13); format: cell-based; conditions: 0.0008 to 0.1 w/v %, 10 J/cm2 UV-irradiation (290-400 nm)
From the text: Aliquots of sheep red blood cells (RBC) suspension prepared with medium to make a 2.5 v/v % concentration are dispensed into microplates. The compound of the present invention was desolved with a vehicle to make target concentrations and then these solutions were immediately added (in concentrations of 0.0008 to 0.1 w/v %) into the microplates. The mixtures on the microplates were exposed to 10 J/cm2 of UV-irradiation (UV-A and UV-B, 290-400 nm) with a GL20SE lamp (SANKYO DENKI) and a FL20S-BLB lamp (Panasonic). After the UV-irradiation, the mixtures were centrifuged. Aliquots of supernatant were transferred to a microplate. Absorbance of the supernatants was measured at 540 nm and 630 nm for judgement of the potential of phototoxicity. In the study, two endpoints were evaluated in biomembrane impairment (% of photohemolysis index; PI) and hyperoxidation of lipid membrane (methemoglobin formation; met-Hb) with the absorbance at 540 nm and 630 nm, respectively. PI and met-Hb were assessed based on the negative criteria (−), PI<10% and changes in absorbance at 630 nm<0.05, respectively. All else was judged as positive (+).

CYP3A4 = CYP3A4 (Homo sapiens (Human), UniProt P08684); assay: CYP3A4 (MDZ) MBI test (Test Example 6); conditions: pooled human liver microsomes, midazolam 1-hydroxylation, preincubation 0 or 30 min
Chain of CYP3A4 (P08684 whole entry): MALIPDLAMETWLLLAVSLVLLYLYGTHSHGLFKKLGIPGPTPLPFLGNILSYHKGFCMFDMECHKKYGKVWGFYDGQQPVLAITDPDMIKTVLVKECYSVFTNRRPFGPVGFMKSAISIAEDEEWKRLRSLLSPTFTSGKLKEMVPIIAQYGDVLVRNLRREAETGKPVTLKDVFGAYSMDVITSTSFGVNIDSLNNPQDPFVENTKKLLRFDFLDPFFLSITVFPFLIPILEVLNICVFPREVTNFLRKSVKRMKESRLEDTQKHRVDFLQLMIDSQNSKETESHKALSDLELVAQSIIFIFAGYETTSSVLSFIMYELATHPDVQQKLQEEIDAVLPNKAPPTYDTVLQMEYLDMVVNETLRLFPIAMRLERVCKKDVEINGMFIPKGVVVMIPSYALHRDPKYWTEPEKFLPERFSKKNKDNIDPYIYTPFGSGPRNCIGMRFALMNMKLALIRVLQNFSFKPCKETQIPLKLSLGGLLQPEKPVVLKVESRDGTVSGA

[3] = Human immunodeficiency virus 1, MT4, read-out: EC50 against T125A mutant virus, T125A mutant virus (HIV-1 NL-432 IN gene), MT-4 cells, MTT
[4] = Human immunodeficiency virus 1, MT4, 96 h
[5] = T125A mutant virus (HIV-1 NL-432 IN gene), MT-4 cells, MTT, read-out: EC50 against T125A mutant virus

Chain of CYP2C9 (P11712 whole entry): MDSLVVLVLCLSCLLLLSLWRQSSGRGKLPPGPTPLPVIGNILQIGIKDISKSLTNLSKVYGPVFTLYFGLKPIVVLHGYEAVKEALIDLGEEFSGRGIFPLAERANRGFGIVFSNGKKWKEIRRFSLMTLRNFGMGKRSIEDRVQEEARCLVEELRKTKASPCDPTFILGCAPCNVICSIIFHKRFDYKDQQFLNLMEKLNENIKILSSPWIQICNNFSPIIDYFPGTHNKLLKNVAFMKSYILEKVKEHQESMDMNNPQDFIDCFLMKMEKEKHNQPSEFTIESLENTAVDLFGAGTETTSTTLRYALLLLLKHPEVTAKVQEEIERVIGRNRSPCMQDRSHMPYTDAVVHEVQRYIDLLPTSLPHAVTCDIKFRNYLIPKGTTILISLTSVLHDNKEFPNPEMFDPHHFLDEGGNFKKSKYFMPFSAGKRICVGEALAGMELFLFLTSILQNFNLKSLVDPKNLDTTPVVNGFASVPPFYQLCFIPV

Structure (SMILES)	IC50 (CYP2C9)	EC50 [1, 3]	EC50 (HIV (HTLV-IIIB strain); [4])	EC90 (HIV (HTLV-IIIB strain); [4])	Potency shift value (HIV)	Photohemolysis test, potential of phototoxicity (PI and met-Hb) [2]	CYP3A4 (MDZ) MBI, shifted IC (CYP3A4)	EC50 [1, 5]	EC50 (HIV (HTLV-IIIB strain))	EC90 (HIV (HTLV-IIIB strain))
Cc1c([C@H](OC(C)(C)C)C(=O)O)c(-c2ccc(Cl)cc2)c2cc(C)n3c2c1N(c1ncc(OCC2COC2)cn1)CC3 [Compound I-258]	> 20000 nM	4.9 nM	2.1 nM	2.9 nM	11	(−) (negative criteria (−), PI<10% and changes in absorbance at 630 nm<0.05, respectively)	(−) (When a shifted IC was 1.0 or less, this was defined as negative)	–	–	–
[2H]C([2H])([2H])Oc1cnc(N2CCn3c(C)cc4c(-c5ccc(Cl)cc5)c([C@H](OC(C)(C)C)C(=O)O)c(C)c2c43)nc1 [Compound I-260]	> 20000 nM	3.6 nM	1.1 nM	1.5 nM	15	(−) (negative criteria (−), PI<10% and changes in absorbance at 630 nm<0.05, respectively)	(−) (When a shifted IC was 1.0 or less, this was defined as negative)	–	–	–
Cc1ccc(N2CCn3c(C)cc4c(-c5ccc(Cl)cc5)c([C@H](OC(C)(C)C)C(=O)O)c(C)c2c43)nn1 [Compound I-262]	> 20000 nM	5 nM	3.2 nM	5.1 nM	13	(−) (negative criteria (−), PI<10% and changes in absorbance at 630 nm<0.05, respectively)	(−) (When a shifted IC was 1.0 or less, this was defined as negative)	–	–	–
Cc1ccc(-c2c([C@H](OC(C)(C)C)C(=O)O)c(C)c3c4c2cc(C)n4CCN3c2ncc(OCCCN(C)C)cn2)cc1 [Compound I-267]	> 20000 nM	26 nM	11 nM	18 nM	4	(−) (negative criteria (−), PI<10% and changes in absorbance at 630 nm<0.05, respectively)	(−) (When a shifted IC was 1.0 or less, this was defined as negative)	–	–	–
Cc1ccc(-c2c([C@H](OC(C)(C)C)C(=O)O)c(C)c3c4c2cc(C)n4CCN3c2ncc(O[C@H]3CCN(C)C3)cn2)cc1 [Compound I-270]	> 20000 nM	13 nM	4.5 nM	7.5 nM	3.8	(−) (negative criteria (−), PI<10% and changes in absorbance at 630 nm<0.05, respectively)	(−) (When a shifted IC was 1.0 or less, this was defined as negative)	–	–	–
Cc1ccc(-c2c([C@H](OC(C)(C)C)C(=O)O)c(C)c3c4c2cc(C)n4CCN3c2ncc(OC3CCN(C)CC3)cn2)cc1 [Compound I-278]	> 20000 nM	13 nM	5.5 nM	11 nM	3.6	(−) (negative criteria (−), PI<10% and changes in absorbance at 630 nm<0.05, respectively)	(−) (When a shifted IC was 1.0 or less, this was defined as negative)	–	–	–
Cc1ccc(-c2c([C@H](OC(C)(C)C)C(=O)O)c(C)c3c4c2cc(C)n4CCN3c2nc3c(s2)CCN(C)C3)cc1 [Compound I-292]	> 20000 nM	6.3 nM	2.5 nM	5.1 nM	4.5	(−) (negative criteria (−), PI<10% and changes in absorbance at 630 nm<0.05, respectively)	(−) (When a shifted IC was 1.0 or less, this was defined as negative)	–	–	–
Cc1ccc(-c2c([C@H](OC(C)(C)C)C(=O)O)c(C)c3c4c2cc(C)n4CCN3c2nc3c(s2)CN(C)CC3)cc1 [Compound I-293]	> 20000 nM	9.3 nM	3.1 nM	5.5 nM	4.8	(−) (negative criteria (−), PI<10% and changes in absorbance at 630 nm<0.05, respectively)	(−) (When a shifted IC was 1.0 or less, this was defined as negative)	–	–	–
Cc1ccc(-c2c([C@H](OC(C)(C)C)C(=O)O)c(C)c3c4c2cc(C)n4CCN3c2ccc(N3CCCC3=O)nn2)cc1 [Compound I-303]	> 20000 nM	–	–	–	15	(−) (negative criteria (−), PI<10% and changes in absorbance at 630 nm<0.05, respectively)	(−) (When a shifted IC was 1.0 or less, this was defined as negative)	4.3 nM	1.5 nM	4 nM
Cc1ccc(-c2c([C@H](OC(C)(C)C)C(=O)O)c(C)c3c4c2cc(C)n4CCN3c2ncc(CN(C)C)cn2)cc1 [Compound I-304]	> 20000 nM	–	–	–	6.8	(−) (negative criteria (−), PI<10% and changes in absorbance at 630 nm<0.05, respectively)	(−) (When a shifted IC was 1.0 or less, this was defined as negative)	7.2 nM	4.1 nM	–
Cc1ccc(-c2c([C@H](OC(C)(C)C)C(=O)O)c(C)c3c4c2cc(C)n4CCN3c2ncc(CCN3CCCCC3)cn2)cc1 [Compound I-305]	> 20000 nM	–	–	–	3.6	(−) (negative criteria (−), PI<10% and changes in absorbance at 630 nm<0.05, respectively)	(−) (When a shifted IC was 1.0 or less, this was defined as negative)	12 nM	3.7 nM	4.9 nM
Cc1ccc(-c2c([C@H](OC(C)(C)C)C(=O)O)c(C)c3c4c2cc(C)n4CCN3c2ncc(CN3CCCCC3)cn2)cc1 [Compound I-308]	> 20000 nM	–	–	–	11	(−) (negative criteria (−), PI<10% and changes in absorbance at 630 nm<0.05, respectively)	(−) (When a shifted IC was 1.0 or less, this was defined as negative)	4.3 nM	1.6 nM	4.8 nM
Cc1ccc(-c2c([C@H](OC(C)(C)C)C(=O)O)c(C)c3c4c2cc(C)n4CCN3c2ncc(CCN3CCOCC3)cn2)cc1 [Compound I-309]	> 20000 nM	–	–	–	13	(−) (negative criteria (−), PI<10% and changes in absorbance at 630 nm<0.05, respectively)	(−) (When a shifted IC was 1.0 or less, this was defined as negative)	4.7 nM	2.2 nM	1.5 nM
